Measurements: the supplement of paper PMC10331698
± gives the standard deviation of the averaged measurements.

Experiments:
Assay in all cases: level (log10 ratio to DMSO vehicle control); higher = higher biomarker level / cell amount than vehicle control
Settings in all cases: in DMSO
[1] = compound: C=C(C)C(=O)OCC(F)(F)C(F)(F)C(F)(F)C(F)(F)C(F)(F)C(F)(F)C(F)(F)F
Protocol: (§1)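 BioMAP Diversity Plus panel of 12 human primary cell co-culture systems (3C, 4H, LPS, SAg, BT, BF4T, BE3C, CASM3C, HDF3CGF, KF3CT, MyoF, Mphg). Compounds were added 1 h before stimulation and left for 24 h (MyoF 48 h; BT 72 h for soluble read-outs or 6 d for IgG). Biomarkers were read by ELISA, cytotoxicity by SRB, PBMC viability and proliferation by Alamar Blue. Each well value was divided by the mean of 8 DMSO control wells on the same plate and log10 transformed; duplicate blinded samples were tested at 4 concentrations.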

[2] = compound: CCCCCCCCC(F)(F)C(F)(F)C(F)(F)C(F)(F)C(F)(F)C(F)(F)F [1-(Perfluorohexyl)octane]
Protocol: as §1

[3] = compound: CNS(=O)(=O)C(F)(F)C(F)(F)C(F)(F)C(F)(F)C(F)(F)C(F)(F)C(F)(F)C(F)(F)F [N-Methylperfluorooctanesulfonamide]
Protocol: as §1

[4] = compound: Cn1cnc([N+](=O)[O-])c1Sc1ncnc2[nH]cnc12 [Azathioprine]
Protocol: as §1

[5] = compound: O=C(O)C(F)(F)OC(F)(F)C(F)(F)OC(F)(F)C(F)(F)C(F)(F)C(F)(F)F [Perfluoro-3,6-dioxadecanoic acid]
Protocol: as §1

[6] = compound: O=P(O)(O)CCC(F)(F)C(F)(F)C(F)(F)C(F)(F)C(F)(F)C(F)(F)C(F)(F)C(F)(F)F [((Perfluorooctyl)ethyl)phosphonic acid]
Protocol: as §1

[7] = compound: O=S(=O)(O)C(F)(F)C(F)(F)C(F)(F)C(F)(F)C(F)(F)C(F)(F)C(F)(F)C(F)(F)F [Potassium perfluorooctanesulfonate]
Protocol: as §1

Test System | level (log10) ([1]; 6700 nM) | level (log10) ([1]; 20000 nM) | level (log10) ([2]; 6700 nM) | level (log10) ([2]; 20000 nM) | level (log10) ([3]; 6700 nM) | level (log10) ([3]; 20000 nM) | level (log10) ([3]; 60000 nM) | level (log10) ([4]; 1400 nM) | level (log10) ([4]; 4200 nM) | level (log10) ([4]; 13000 nM) | level (log10) ([4]; 38000 nM) | level (log10) ([5]; 6700 nM) | level (log10) ([5]; 20000 nM) | level (log10) ([5]; 60000 nM) | level (log10) ([6]; 6700 nM) | level (log10) ([6]; 20000 nM) | level (log10) ([6]; 60000 nM) | level (log10) ([7]; 6700 nM) | level (log10) ([7]; 20000 nM) | level (log10) ([7]; 60000 nM)
lMphg:IL-1alpha | -0.0265 ± 0.029 | 0.005 ± 0.13 | -0.0215 ± 0.013 | 0.0085 ± 0.074 | 0.075 ± 0.017 | 0.132 ± 0.035 | 0.15 ± 0.013 | 0.0185 ± 0.067 | 0.0045 ± 0.0078 | -0.0015 ± 0.023 | -0.005 ± 0.057 | -0.0105 ± 0.056 | -0.021 ± 0.011 | 0.021 ± 0.011 | -0.014 ± 0.0099 | -0.0245 ± 0.025 | 0.02 ± 0.0042 | -0.003 ± 0.028 | 0.0235 ± 0.015 | 0.0125 ± 0.012
lMphg:M-CSF | -0.0185 ± 0.0035 | -0.0025 ± 0.033 | -0.0235 ± 0.021 | -0.0205 ± 0.036 | -0.046 ± 0.0028 | -0.0305 ± 0.016 | -0.0015 ± 0.021 | 0.004 ± 0.018 | -0.0045 ± 0.0021 | -0.032 ± 0.011 | -0.0885 ± 0.0064 | -0.027 ± 0.045 | -0.0395 ± 0.0035 | -0.0475 ± 0.026 | -0.0235 ± 0.0064 | -0.039 ± 0.0057 | -0.0405 ± 0.0078 | -0.0005 ± 0.005 | -0.004 ± 0.0057 | 0.035 ± 0.016
lMphg:SRB | -0.012 ± 0.016 | -0.015 ± 0.016 | 0.002 ± 0.0042 | 0 ± 0.0085 | -0.021 ± 0.021 | -0.0155 ± 0.00071 | -0.0265 ± 0.00071 | -0.0055 ± 0.0078 | -0.0055 ± 0.005 | -0.014 ± 0.0085 | -0.0365 ± 0.0021 | -0.0135 ± 0.011 | -0.01 ± 0.0071 | -0.0705 ± 0.013 | 0 ± 0.0071 | -0.0105 ± 0.0078 | -0.044 ± 0.0085 | -0.0065 ± 0.015 | -0.01 ± 0.0071 | -0.015 ± 0.011
lMphg:SRB-Mphg | 0.0095 ± 0.052 | 0.0365 ± 0.03 | -0.007 ± 0.013 | 0.0305 ± 0.019 | 0.0005 ± 0.0035 | 0 ± 0.0042 | -0.018 ± 0.02 | -0.001 ± 0.031 | -0.0085 ± 0.0021 | -0.0155 ± 0.011 | -0.0235 ± 0.0021 | 0.012 ± 0.016 | 0.014 ± 0.024 | -0.0125 ± 0.03 | 0.0005 ± 0.015 | -0.0055 ± 0.00071 | -0.0515 ± 0.022 | 0.0005 ± 0.005 | 0.0005 ± 0.011 | 0.0115 ± 0.005
lMphg:sIL-10 | -0.0725 ± 0.016 | -0.121 ± 0.31 | -0.0375 ± 0.056 | -0.036 ± 0.054 | -0.0935 ± 0.016 | -0.115 ± 0.03 | -0.169 ± 0.1 | 0.0005 ± 0.12 | -0.077 ± 0.047 | -0.117 ± 0.059 | -0.311 ± 0.081 | -0.023 ± 0.024 | -0.042 ± 0.023 | -0.561 ± 0.13 | -0.0215 ± 0.012 | -0.062 ± 0.017 | -0.263 ± 0.025 | 0.015 ± 0.0014 | -0.0445 ± 0.0092 | -0.647 ± 0.025
